Experiments:
[1] = biological target: Human recombinant USP1/UAF1 (Homo sapiens (Human), UniProt O94782); experiment: Enzymatic assay, USP1/UAF1 with Ubiquitin Rhodamine 110; format: biochemical; details: 2 nM USP1/UAF1, 500 nM Ubiquitin Rhodamine 110, 15 minutes preincubation at RT
Protocol: Human recombinant USP1/UAF1 expressed in baculovirus infected Sf21 cells were used (R&D, E-568-050). Test compound and/or vehicle was incubated with 2 nM of USP1/UAF1 in modified HEPES buffer pH 8.0 for 15 minutes at RT. The reaction was initiated by addition of 500 nM of Ubiquitin Rhodamine 110 (R&D, U-555-050) for kinetic reading. Slope change of fluorescence intensity was read spectrofluorimetrically at 485 nm/535 nm.

MDA-MB-436 cells = experiment: MDA-MB-436 breast cancer cell proliferation assay (CellTiter-Glo); format: cell-based; details: Homo sapiens, 168 h, 7 days
Protocol: MDA-MB-436 cells were grown in Leibovitz's L-15 medium with 10 ug/ml insulin, 16 ug/ml glutathione, 10% FBS. Cells were passaged at subconfluence after trypsinization and maintained in incubators at 37° C. in a humidified atmosphere with 5% CO2.
Cell proliferation was determined using CellTiter-Glo® Luminescent Cell Viability Assay (Promega, #G7573). MDA-MB-436 cells were seeded in 384-well plates and allowed to attach for 24 h. Compounds were added into 384-well plate by ECHO, and incubated at 37° C. in a humidified atmosphere with 5% CO2. After 7 days, CellTiter-Glo was added into 384 well plates, contents were mixed on an orbital shaker at […] for 2 min before centrifuging the plate for 2 min at 1000 rpm. After incubation at RT for 30 min, luminescence was read on envision.

Sequence of Human recombinant USP1/UAF1 (O94782 whole entry): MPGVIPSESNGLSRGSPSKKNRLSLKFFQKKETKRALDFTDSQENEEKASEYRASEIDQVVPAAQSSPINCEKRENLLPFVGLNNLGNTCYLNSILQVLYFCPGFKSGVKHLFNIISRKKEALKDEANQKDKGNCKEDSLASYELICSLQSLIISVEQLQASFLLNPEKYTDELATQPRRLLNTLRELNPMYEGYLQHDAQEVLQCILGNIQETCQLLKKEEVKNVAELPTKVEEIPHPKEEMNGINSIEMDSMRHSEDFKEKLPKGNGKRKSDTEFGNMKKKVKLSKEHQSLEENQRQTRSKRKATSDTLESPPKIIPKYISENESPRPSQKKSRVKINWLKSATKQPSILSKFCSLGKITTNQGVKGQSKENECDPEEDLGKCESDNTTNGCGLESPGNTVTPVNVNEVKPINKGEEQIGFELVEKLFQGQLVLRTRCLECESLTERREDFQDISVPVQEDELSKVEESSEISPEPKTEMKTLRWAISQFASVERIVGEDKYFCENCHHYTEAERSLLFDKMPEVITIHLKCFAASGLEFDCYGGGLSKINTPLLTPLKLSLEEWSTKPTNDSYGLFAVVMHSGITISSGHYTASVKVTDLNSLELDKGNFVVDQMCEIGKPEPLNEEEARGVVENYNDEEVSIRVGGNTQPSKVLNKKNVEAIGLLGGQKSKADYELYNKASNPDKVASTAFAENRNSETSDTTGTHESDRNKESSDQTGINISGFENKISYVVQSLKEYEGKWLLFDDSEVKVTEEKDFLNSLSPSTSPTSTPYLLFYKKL
Sequence of Human recombinant USP1/UAF1 (Q8TAF3 whole entry partner): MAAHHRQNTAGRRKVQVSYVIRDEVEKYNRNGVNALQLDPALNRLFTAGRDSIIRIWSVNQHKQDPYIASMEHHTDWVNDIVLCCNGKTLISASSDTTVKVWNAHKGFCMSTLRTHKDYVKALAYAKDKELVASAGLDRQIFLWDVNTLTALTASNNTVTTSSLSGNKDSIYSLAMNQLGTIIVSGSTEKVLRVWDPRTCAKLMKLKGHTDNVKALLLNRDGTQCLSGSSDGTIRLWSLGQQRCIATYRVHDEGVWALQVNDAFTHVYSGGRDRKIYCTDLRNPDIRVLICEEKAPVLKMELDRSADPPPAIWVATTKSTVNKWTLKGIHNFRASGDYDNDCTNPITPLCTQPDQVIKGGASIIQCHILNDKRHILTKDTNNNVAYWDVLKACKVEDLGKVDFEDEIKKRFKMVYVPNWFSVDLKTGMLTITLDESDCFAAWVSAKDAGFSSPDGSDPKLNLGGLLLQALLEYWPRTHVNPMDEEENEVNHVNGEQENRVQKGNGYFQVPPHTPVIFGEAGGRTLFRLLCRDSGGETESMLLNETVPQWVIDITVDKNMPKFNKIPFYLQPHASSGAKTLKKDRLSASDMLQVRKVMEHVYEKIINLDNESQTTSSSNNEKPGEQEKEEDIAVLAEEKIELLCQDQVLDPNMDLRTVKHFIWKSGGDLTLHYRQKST

Row | Compound | IC50 [1] [nM] | IC50 (MDA-MB-436 cells) [nM]
1 | [2H]C([2H])([2H])n1nc(-c2c(OC)ncnc2C2CC2)c2c1CCN(c1ccc(-c3nc(C(F)(F)F)cn3C)c(F)c1)C2 [Example 30, 3-(4-cyclopropyl-6-methoxypyrimidin-5-yl)-5-(3-fluoro-4-(1-methyl-4-(trifluoromethyl)-1H-imidazol-2-yl)phenyl)-1-(methyl-d3)-4,5,6,7-tetrahydro-1H-pyrazolo[4,3-c]pyridine] | < 50 | < 50
2 | COc1ncnc(C2CC2)c1-c1nn(C)c2c1CN(c1ccc(-c3nc(C(F)(F)F)cn3C)cc1)CC2 [Example 3, 3-(4-cyclopropyl-6-methoxypyrimidin-5-yl)-1-methyl-5-(4-(1-methyl-4-(trifluoromethyl)-1H-imidazol-2-yl)phenyl)-4,5,6,7-tetrahydro-1H-pyrazolo[4,3-c]pyridine] | < 50 | < 50
3 | COc1ncnc(C2CC2)c1-c1nn(C(F)F)c2c1CN(c1ccc(-c3nc(C(F)(F)F)cn3C(C)C)cn1)CC2 [Example 32, 3-(4-cyclopropyl-6-methoxypyrimidin-5-yl)-1-(difluoromethyl)-5-(5-(1-isopropyl-4-(trifluoromethyl)-1H-imidazol-2-yl)pyridin-2-yl)-4,5,6,7-tetrahydro-1H-pyrazolo[4,3-c]pyridine] | < 50 | 50 to 1000
4 | [2H]C([2H])([2H])n1nc(-c2c(OC)ncnc2C2CC2)c2c1CCN(c1ccc(-c3nc(C(F)(F)F)cn3C)cn1)C2 [Example 18, 3-(4-cyclopropyl-6-methoxypyrimidin-5-yl)-1-(methyl-d3)-5-(5-(1-methyl-4-(trifluoromethyl)-1H-imidazol-2-yl)pyridin-2-yl)-4,5,6,7-tetrahydro-1H-pyrazolo[4,3-c]pyridine] | < 50 | < 50

Source: patent publication US11739077B2, “Small molecule inhibitors of ubiquitin specific protease 1 (USP1) and uses thereof” (Insilico Medicine IP Limited, priority 2021, dated 2023)
